Source: patent publication US10100372B2, “Recombinant RSV reporter virus” (priority 2014, dated 2018)
Read-outs that look alike come from different tables or passages of the source. *1 amine or outer side, *2 acyl side, *3 side chain or, on linkers, in order; H or OH if unused. Where a SMILES comes first, the peptide text is derived from it. Bridges are numbered along the chain shown (N, C = ends). Roman numbers before positions name the chains, in order. [ ]: non-standard residue; d: D form. Actinocin(9to1) = Cc1c2oc3c(C)ccc(C(=O)[*:1])c3nc-2c(C(=O)[*:2])c(N)c1=O; NMeV = CN[C@H](C(=O)O)C(C)C; Sar = CNCC(=O)O

Key:
[1] = tested on: recRSV A2-L19FD489E-fireSMASh; test: microbe, parasite or virus in culture; assay type: cell-based, Respiratory Syncytial Virus; settings: 384-well, four replicate screens, mean ± SD, BEAS-2B co-infection; for inhibition at 5 µM: human respiratory syncytial virus, read-out: % Inhibition (anti-RSV)
[2] = tested on: recIAV WSN-NanoLuc; test: microbe, parasite or virus in culture; assay type: cell-based, influenza virus IAV/WSN/33 (H1N1); settings: for inhibition at 5 µM: unidentified influenza virus, WSN, BEAS-2B, read-out: % Inhibition (anti-IAV)
[3] = tested on: recRSV A2-L19F-renilla; test: microbe, parasite or virus in culture; assay type: cell-based; settings: BEAS-2B; for EC50: human respiratory syncytial virus, read-out: EC50 RSV A2-L19F-renilla
[4] = tested on: recIAV WSN-NanoLuc; settings: for SI [CC50/EC50] IAV: SIIAV; for EC50 IAV WSN-nanoLuc: BEAS-2B, 95% confidence interval in parentheses, inactive = less than 50% reduction of mean reporter signal
[5] = tested on: recRSV A2-L19FD489E-fireSMASh; settings: for SI [CC50/EC50] RSV: SIRSV
[6] = in vitro; settings: human
[7] = tested on: recIAV WSN-NanoLuc; test: microbe, parasite or virus in culture; settings: Influenza A virus, BEAS-2B, read-out: EC50 IAV WSN-nanoLuc
[8] = tested on: recRSV A2-L19FD489E-fireSMASh; test: microbe, parasite or virus in culture; settings: human respiratory syncytial virus, BEAS-2B, read-out: EC50 RSV A2-L19FD489E-fireSMASh
[9] = tested on: BEAS-2B cells; settings: highest concentration 10 μM; tox = less than 50% cell viability after 44 hours at ≤10 μM
[10] = tested on: RSV A2 strain; settings: cited from earlier work
[11] = biological target: RSV F protein (Human respiratory syncytial virus, UniProt P12568); settings: resistance sites in the RSV F protein; cited from earlier work
[12] = tested on: recRSV A2-L19F-ren; assay type: cell-based; settings: GPAR-3710 added later than four hours post-infection; JMN3-003 added eight hours post-infection
[13] = 95% confidence interval in parentheses, inactive = less than 50% reduction of mean reporter signal

Sequence of RSV F protein (P12568 137-574 limits assumed): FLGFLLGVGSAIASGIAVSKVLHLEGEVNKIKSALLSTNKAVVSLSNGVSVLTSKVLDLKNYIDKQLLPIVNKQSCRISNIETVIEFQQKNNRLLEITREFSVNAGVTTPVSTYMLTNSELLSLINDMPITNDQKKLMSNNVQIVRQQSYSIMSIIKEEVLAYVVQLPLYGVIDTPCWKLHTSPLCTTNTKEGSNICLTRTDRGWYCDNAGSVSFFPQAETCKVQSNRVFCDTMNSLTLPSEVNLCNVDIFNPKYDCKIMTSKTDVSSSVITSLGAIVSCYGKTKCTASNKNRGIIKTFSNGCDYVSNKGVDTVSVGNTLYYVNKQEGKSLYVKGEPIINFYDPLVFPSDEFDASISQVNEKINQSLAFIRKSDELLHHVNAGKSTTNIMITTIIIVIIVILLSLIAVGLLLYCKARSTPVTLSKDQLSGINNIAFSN
Sequence of RSV F protein (P12568 26-109 partner limits assumed): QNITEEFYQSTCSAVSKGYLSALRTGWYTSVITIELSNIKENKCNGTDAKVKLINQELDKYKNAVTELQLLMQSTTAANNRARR

Cc1c2oc3c(C)ccc(C(=O)N[C@@H]4C(=O)N[C@H](C(C)C)C(=O)N5CCC[C@H]5C(=O)N(C)CC(=O)N(C)[C@@H](C(C)C)C(=O)O[C@@H]4C)c3nc-2c(C(=O)N[C@@H]2C(=O)N[C@H](C(C)C)C(=O)N3CCC[C@H]3C(=O)N(C)CC(=O)N(C)[C@@H](C(C)C)C(=O)O[C@@H]2C)c(N)c1=O [Actinomycin D] (I: T[dV]P[Sar][NMeV] / II: T[dV]P[Sar][NMeV]; ester I:1-I:C, II:1-II:C; linker I:N-II:N via Actinocin(9to1))
% Inhibition (anti-RSV) ([1]; 5 μM): 52 ± 9.6%
% Inhibition (anti-IAV) ([2]; 5 μM): 104 ± 1.5%

Nc1nc(N)c2nc(CNc3ccc(C(=O)N[C@@H](CCC(=O)O)C(=O)O)cc3)cnc2n1 [Aminopterin]
EC50 [3]: 50 nM
SI [CC50/EC50] IAV [4]: SIIAV 111
SI [CC50/EC50] RSV [5]: SIRSV 143
CC50 [6]: 10000 nM
EC50 [7]: 90 nM
EC50 [8]: 70 nM

CC(=O)OC[C@H]1O[C@@H]([S-])[C@H](OC(C)=O)[C@@H](OC(C)=O)[C@@H]1OC(C)=O.CCP(CC)CC.[Au+] [Auranofin]
CC50 (PrestoBlue cell viability) [9]: tox^d

COc1cc2nc(N3CCCN(C)CC3)nc(NC3CCN(Cc4ccccc4)CC3)c2cc1OC [BIX 01294]
EC50 RSV A2-L19F-renilla [3, 13]: inactive^e
EC50 IAV WSN-nanoLuc [4]: inactive^e
EC50 RSV A2-L19FD489E-fireSMASh ([5]; BEAS-2B, 95% confidence interval in parentheses, inactive = less than 50% reduction of mean reporter signal): inactive^e
CC50 [6]: > 10000 nM

O=c1n(Cc2nc3ccccc3n2CCCCO)c2cnccc2n1C1CC1 [BMS-433771]
EC50 [10]: 10 nM
reported resistance sites [11]: FF140I FV144A FD392G FK394R FD489Y

Cc1c(-c2ccc(-c3ccccc3F)cc2)nc2ccc(F)cc2c1C(=O)O [Brequinar]
EC50 [3, 13]: 1800 nM
SI [CC50/EC50] IAV [4]: SIIAV >3.8
SI [CC50/EC50] RSV [5]: SIRSV >6.3
CC50 [6]: > 10000 nM
EC50 [7]: 2600 nM
EC50 [8]: 1600 nM

CNc1ccc2oc(C[C@H]3O[C@@]4(CC[C@H]3C)O[C@H]([C@H](C)C(=O)c3ccc[nH]3)[C@H](C)C[C@H]4C)nc2c1C(=O)O [Calcimycin]
CC50 (PrestoBlue cell viability) [9]: tox^d

CC[C@H]1CN2CCc3cc(OC)c(OC)cc3[C@@H]2C[C@@H]1C[C@H]1NCCc2cc(OC)c(OC)cc21 [Emetine]
CC50 (PrestoBlue cell viability) [9]: tox^d

COc1cccc2c1C(=O)c1c(O)c3c(c(O)c1C2=O)C[C@@](O)(C(=O)CO)C[C@@H]3O[C@H]1C[C@H](N)[C@@H](O)[C@H](C)O1 [Epirubicin]
inhibition at 5 µM [1]: 62 ± 6.3%
inhibition at 5 µM [2]: 75 ± 3.1%

COc1cc([C@@H]2c3cc4c(cc3[C@@H](O[C@@H]3O[C@@H]5CO[C@@H](C)O[C@H]5[C@H](O)[C@H]3O)[C@H]3COC(=O)[C@H]23)OCO4)cc(OC)c1O [Etoposide]
inhibition at 5 µM [1]: 80 ± 6.6%
inhibition at 5 µM [2]: 56 ± 5.6%

CC1=C(/C=C/C(C)=C/C=C/C(C)=C/C(=O)Nc2ccc(O)cc2)C(C)(C)CCC1 [Fenretinide]
EC50 [3, 13]: 4800 nM
EC50 IAV WSN-nanoLuc [4]: inactive^e
effect on IAV reporter strain ([4]; highest concentration tested): unaffected
SI [CC50/EC50] RSV [5]: SIRSV >2.8
selectivity for RSV reporter ([5]; dose-response counterscreen): selectively inhibited RSV
CC50 [6]: > 10000 nM
EC50 [8]: 3600 nM

Nc1ccn([C@@H]2O[C@H](CO)[C@@H](O)C2(F)F)c(=O)n1 [Gemcitabine]
EC50 [3, 13]: 50 nM
SI [CC50/EC50] IAV [4]: SIIAV >100
SI [CC50/EC50] RSV [5]: SIRSV >111
CC50 [6]: > 10000 nM
EC50 [7]: 100 nM
EC50 [8]: 90 nM

COC(=O)C[C@](O)(CCCC(C)(C)O)C(=O)O[C@@H]1C(OC)=C[C@]23CCCN2CCc2cc4c(cc2[C@H]13)OCO4 [Homoharringtonine]
inhibition at 5 µM [1]: 98 ± 0.5%
inhibition at 5 µM [2]: 90 ± 2.6%

CC(=O)[C@]1(O)Cc2c(O)c3c(c(O)c2[C@@H](O[C@H]2C[C@H](N)[C@H](O)[C@H](C)O2)C1)C(=O)c1ccccc1C3=O [Idarubicin]
inhibition at 5 µM [1]: 95 ± 1.3%
inhibition at 5 µM [2]: 97 ± 1%
CC50 (PrestoBlue cell viability) [9]: tox^d

COc1ccc(-n2c(SC(C)C(=O)Nc3ccc(C)cc3Cl)nc3ccccc32)cc1 (stereo not drawn) [JMN3-003]
antiviral activity in time-of-addition study [12]: remained potently inhibitory

Cc1ccc(O)c(Cn2c(NC3CCN(CCN)CC3)nc3c(C)cccc32)n1 [JNJ2408068]
EC50 ([10]; active concentrations based on in vitro assays, when available RSV A2 strain): 2.1 nM
reported resistance sites [11]: FK399I FD486N FE487D

Nc1nc2c(c(=O)[nH]1)C[C@@H](CCc1ccc(C(=O)N[C@@H](CCC(=O)O)C(=O)O)cc1)CN2 [Lometrexol]
CC50 (PrestoBlue cell viability) [9]: tox^d

CN(Cc1cnc2nc(N)nc(N)c2n1)c1ccc(C(=O)N[C@@H](CCC(=O)O)C(=O)O)cc1 [Methotrexate]
inhibition at 5 µM [1]: 99 ± 0.5%
inhibition at 5 µM [2]: 100 ± 0.6%
